Article PMC8369502, “High-Throughput Drug Screening System Based on Human Induced Pluripotent Stem Cell-Derived Atrial Myocytes ∼ A Novel Platform to Detect Cardiac Toxicity for Atrial Arrhythmias” (Frontiers in Pharmacology, 2021)
Several values for one entry are separate records, joined by “and”; a condition that tells them apart may be missing. Identical values can stand only once. Entries after “also recorded” stand apart in the source; their conditions may differ. Like-named read-outs stand apart in the source and are kept apart here.

Assays:
Format in all cases: cell-based, human
[1] = test system: CT (control hiPS-CMs without RA, ventricular-like); assay: High-throughput membrane potential recording (FluoVolt, FDSS/μCell) in CT; conditions: for Falling Slope / PWD30cF / PWD80cF / Rising Slope: % change from value before compound addition, 10 min after addition (Bay K 8644: 3 min); for rising slope of membrane potential (in words) / beating rate (in words) / falling slope of membrane potential (in words): concentration range as stated in the source
Experimental: (§1) Using a high-throughput screening system (FDSS/μCell), we assessed the drug toxicity of several experimental drugs on hiPS-derived atrial myocytes as well as control hiPS-derived cardiomyocytes. Membrane potential was used as one of the parameters during the assessment.
(§2) After purification, hiPS-derived cardiomyocytes were plated in 96-well plates for downstream drug response assessment using FluoVolt™ Membrane Potential Kit. […] The comparison of variance in the response of drug administration in CT and AM was represented by the percentage of changes based on their baseline values respectively.
(§3) FluoVolt™ Membrane Potential Kit (ThermoFisher […], F10488, Massachusetts, United States) was used to measure membrane potentials. The basic procedure was performed in accordance with the manufacturer’s instructions. […] MP were recorded at excitation and emission stages at wavelengths of 470 and 540 nm, respectively. […] Stock solutions of the test compounds were prepared in 100% DMSO, and serially diluted 1/40 into compound plates for testing (0.5% DMSO was the maximum concentration in all wells). The compounds were automatically pipetted from the compound plate, and 12 μL was loaded in the wells already containing the cells with 48 μL of media. Recording data were analyzed using Waveform Analysis of Cardiomyocyte Software (Ver.1.2.1J, Hamamatsu Photonics K.K.). Data values for a well were averaged from waveforms that arose during 30 s. The beat rate (BR; beats per minute), waveform amplitude (AMP), and duration at 30, 50, and 80% of decay (PWD30, PWD 50, and PWD 80, respectively) were used as evaluation parameters. PWDs were corrected using the Fridericia formula. PWD30-80 was calculated as the difference between PWD80 and PWD30. Each parameter was calculated as percentage change (%) from the value before test compound addition.

[2] = test system: AM (RA-treated hiPS-CMs, atrial-like); assay: High-throughput membrane potential recording (FluoVolt, FDSS/μCell) in AM; conditions: for PWD30cF / Rising Slope / Beat Rate / PWD80cF / Falling Slope: % change from value before compound addition, 10 min after addition (Bay K 8644: 3 min); for rising slope of membrane potential (in words) / beating rate (in words) / falling slope of membrane potential (in words): concentration range as stated in the source; for cessation of beating (samples): 0.1 μM doses; for arrest of spontaneous beating (samples): at the maximal concentration
Experimental: as §1, §2, §3

[3] = test system: hiPS-derived cardiomyocytes; assay: Cardiac differentiation of hiPSCs with RA, immunostaining (cTnT, MLC-2a, MLC-2v)
Experimental: Undifferentiated hiPSCs were maintained in AK02 medium for 2–3 days until 80% confluency was obtained. To obtain highly purified cardiomyocytes, metabolic selection was performed during post-differentiation, from day 15–26. Cardiomyocyte proportion was quantified by immunostaining with cardiac troponin-T (cTnT).
To further evaluate the gene expression of cardiac subtypes in the control hiPS-CMs (CT) and the RA-treated hiPS-CMs (AM), the cells were co-stained with myosin light chain 2a (MLC-2a: atrial isoform) and myosin light chain 2v (MLC-2v: ventricular isoform) (Supplementary Figure 1). […] In AM (MLC-2a 83.4 ± 0.63%), most cTnT-positive cells were co-positive for MLC-2a, however, very few cTnT-positive cells were found co-positive for MLC-2v (MLC-2v 14.0 ± 2.82%) (Figures 1B, C).
The hiPSCs were enzymatically dispersed and maintained until 80% confluence with StemFit® AK02N containing 10 µM Y-27632 (Wako, 036-24023). The next day, the culture medium was changed to StemFit® AK02N without Y-27632, which was maintained until the next passage. hiPSCs were seeded on a dish coated with Geltrex LDEV-Free Reduced Growth Factor (ThermoFisher […]) at 1% concentration in PBS. When the seeded cells reached 80% confluency (day-1), the culture medium was changed to StemFit® AK02N containing Matrigel® (Growth Factor Reduced, Corning, 354,230) at 1% concentration for 24 h. On day0, the culture medium was changed to Medium A (PSC Cardiomyocyte Differentiation Kit, ThermoFisher […]) containing Matrigel for 48 h. On day2, the culture medium was changed to Medium B (PSC Cardiomyocyte Differentiation Kit, ThermoFisher […]) for 48 h. On day4, the culture medium was changed to cardiomyocyte maintenance medium (PSC Cardiomyocyte Differentiation Kit, ThermoFisher […]) supplemented with or without 0.7 μM RA (Sigma Aldrich, R2625) for 72 h. On day 7, the culture medium was changed to cardiomyocyte maintenance medium, and change the medium every 2 days. The cells typically started spontaneous beating around 10 days of initiation of the differentiation protocol. Purification of cardiomyocytes was performed by using a non-glucose medium supplemented with 4 mM lactic acid for 4days/time, performed 2 times (from day 14 to day 18, and from day 21 to day 25), between the 2 times of purifying application, the medium was changed to cardiomyocyte maintenance medium for 72 h (from day 18 to day 21). After purification, the culture was continued in the cardiomyocyte maintenance medium until the functional analysis.
hiPSC-derived cardiomyocytes were fixed with 4% PFA and permeabilized with 0.1% Triton-X in PBS (-) for 15 min at 4°C. […] Fluorescence images were obtained using Operetta high content imaging system (PerkinElmer, Japan) and analyzed using Harmony analysis software (PerkinElmer, Japan).

| Compound | membrane potential duration (in words) [1] | Falling Slope [1] | PWD30cF [1] | PWD80cF [1] | Rising Slope [1] | rising slope of membrane potential (in words) [1] | membrane potential duration (in words) [2] | PWD30cF [2] | Rising Slope [2] | rising slope of membrane potential (in words) [2] | beating rate (in words) [1] | falling slope of membrane potential (in words) [1] | Beat Rate [2] | beating rate (in words) [2] | PWD80cF [2] | Falling Slope [2] | falling slope of membrane potential (in words) [2] | other results |
| --- | --- | --- | --- | --- | --- | --- | --- | --- | --- | --- | --- | --- | --- | --- | --- | --- | --- | --- |
| CCS(=O)(=O)N(C)[C@H]1c2cc(C#N)ccc2OC(C)(C)[C@@H]1O (racemic) [Chromanol 293B] | increase | ↓ | ↑ | ↑ | ↓ | dose-dependent decrease | increase | ↑ | ↓ | dose-dependent decrease | – | – | – | – | – | – | – | – |
| COc1ccc([C@@H]2Sc3ccccc3N(CCN(C)C)C(=O)[C@@H]2OC(C)=O)cc1 [Diltiazem] | decreased | ↑ | ↓ | ↓ | – | – | – | ↓ | – | – | dose-dependent increases | dose-dependent increases | ↑ | dose-dependent increase | – | – | – | other parameters of membrane potential (in words) [2]: no obvious changes were observed; cessation of beating (samples) [2]: all the AM samples; incidence of arrhythmia-like waveforms: arrest ([2]; 1 μM): 100%; arrest of spontaneous beating (samples) [2]: all the tested samples |
| Nc1ccncc1 [4-Aminopridine, 4-Aminopyridine] | – | – | ↑ | – | – | – | – | ↑ | – | – | – | – | – | – | ↑ | – | – | PWD30cF (in words) ([2]; listed as 4-AP): dose-dependent increases; PWD50cF (in words) ([2]; listed as 4-AP): dose-dependent increases; PWD30cF (in words) ([2]; listed as 4AP): prolongation; PWD50cF (in words) ([2]; listed as 4AP): prolongation |
| Cc1cccc(CCN2CCC(C(=O)c3ccc(NS(C)(=O)=O)cc3)CC2)n1 [E-4031] | increase | ↓ | ↓ | ↑ | ↓ | dose-dependent decrease | increase | – | ↓ | dose-dependent decrease | dose-dependent decrease | dose-dependent decrease | ↓ | dose-dependent decrease | ↑ | ↓ | dose-dependent decrease | PWD30-80 (in words) [1]: prolonged; also recorded: dose-dependent increases; PWD80cF (in words) [1]: prolonged; also recorded: dose-dependent increases; PWD30-80 (in words) [2]: prolonged; also recorded: dose-dependent increases; PWD80cF (in words) [2]: prolonged; also recorded: dose-dependent increases |
| CC(C)NCC(O)COc1cccc2ccccc12 (centres unmarked) [Propranolol] | – | ↓ | ↓ | ↑ | ↓ | dose-dependent decrease | – | – | ↓ | dose-dependent decrease | dose-dependent decrease | dose-dependent decrease | ↓ | dose-dependent decrease | ↑ | ↓ | dose-dependent decrease | PWD30-80 (in words) [1]: prolonged; PWD80cF (in words) [1]: prolonged; concentration at which irregular beating or EAD appeared [1]: above 10 μM; incidence of arrhythmia-like waveforms: EAD ([1]; 10 μM): 25%; incidence of arrhythmia-like waveforms: irregular beat ([1]; 10 μM): 17%; incidence of arrhythmia-like waveforms: EAD ([1]; 30 μM): 42%; incidence of arrhythmia-like waveforms: arrest ([1]; 30 μM): 17%; incidence of arrhythmia-like waveforms: irregular beat ([1]; 30 μM): 8%; incidence of arrhythmia-like waveforms: arrest ([1]; 100 μM): 100%; PWD30-80 (in words) [2]: prolonged; PWD80cF (in words) [2]: prolonged; incidence of arrhythmia-like waveforms: irregular beat ([2]; 10 μM): 11%; irregular beating (samples) ([2]; 10 μM, count of samples): 1 out of 9; incidence of arrhythmia-like waveforms: arrest ([2]; 30 μM): 100%; incidence of arrhythmia-like waveforms: arrest ([2]; 100 μM): 100% |
| COC(=O)C1=C(C)NC(C)=C([N+](=O)[O-])C1c1ccccc1C(F)(F)F (centres unmarked) [Bay K 8644] | prolonged | ↓ | ↑ | ↑ | – | – | prolonged | ↑ | ↑ | – | – | dose-dependent decrease | – | – | ↑ | ↓ | dose-dependent decrease | PWD30cF (in words) [1]: prolonged; PWD30cF (in words) ([1]; listed as Bay K8644): prolonged significantly; PWD30cF (in words) [2]: prolonged; PWD30cF (in words) ([2]; listed as Bay K8644): prolonged significantly |
| C[N+](C)(C)CCOC(N)=O [Carbachol] | – | – | – | – | – | – | – | – | ↓ | decrease | – | – | ↓ | decrease | – | – | – | EAD / irregular beating (in words) [1]: No irregular beating or EAD was elicited; response of membrane potential parameters (in words) [1]: no significant difference was observed; EAD / irregular beating (in words) [2]: No irregular beating or EAD was elicited; EAD / irregular beating (in words) ([2]; listed as carbachol): caused irregular beats early after application |
| CC1=C(/C=C/C(C)=C/C=C/C(C)=C/C(=O)O)C(C)(C)CCC1 [RA, retinoic acid] | – | – | – | – | – | – | – | – | – | – | – | – | – | – | – | – | – | MLC-2a positive cells ([3]; AM (RA-treated hiPS-CMs)): 83.4 ± 0.63%; MLC-2v positive cells ([3]; AM (RA-treated hiPS-CMs)): 14.0 ± 2.82%; proportion of cTnT-positive cells ([3]; AM (RA-treated hiPS-CMs), 0.7 μM RA day 4-7, n = 3): 96.79 ± 1.81% and 96.8 ± 1.81%; cardiomyocyte differentiation efficiency (in words) ([3]; with vs without RA): did not influence cardiomyocyte differentiation efficiency |
| COc1ccc(CCN(C)CCCC(C#N)(c2ccc(OC)c(OC)c2)C(C)C)cc1OC (centres unmarked) [Verapamil] | decreased | ↑ | ↓ | ↓ | ↓ | – | – | – | – | – | dose-dependent increases | dose-dependent increases | ↑ | dose-dependent increase | – | – | – | other parameters of membrane potential (in words) [2]: no obvious changes were observed; incidence of arrhythmia-like waveforms: arrest ([2]; 0.1 μM): 100%; cessation of beating (samples) [2]: all the AM samples; arrest of spontaneous beating (samples) [2]: all the tested samples |
